# Laboratory results from US20070244076A1, “Site and Rate Selective Prodrug Formulations of D609 with Antioxidant and Anticancer Activity” (priority 2003, published 2007).
# Values joined by “and” are separate entries in the source; they are usually repeats but may differ in a detail not shown here. Equal entries are not always repeated. Marks after values point to notes of the source that are not given here.
# Key:
# [1] = rat, plasma
# Description: At various times of the incubation, the hydrolysis of prodrug 2 was monitored by HPLC analysis, and the release of D609 was determined by measuring the colorimetric reaction of D609 with DTNB (3 mM). The data are presented as mean±SE of three independent assays.
# After incubation at 37° C., aliquots (100 μl) of the plasma were removed at various times and immediately mixed with an equal volume of DTNB in acetonitrile (3 mM DTNB). Acetonitrile was used to quickly inactivate plasma esterases and to precipitate plasma proteins. After removal of the precipitated plasma proteins by centrifugation, the concentrations of the D609 prodrug and D609 in the clear plasma supernatants were determined by HPLC and DTNB assays, respectively, as described above.
# [2] = test system: ceramide levels in U937 cells; experiment: Ceramide profile in U937 cells by ESI/MS/MS; type: cell-based, Human; settings: for increase in the level of total ceramide compared to vehicle-treated cells: 177 μM; for C14-Cer / C16-Cer / C18-Cer / C20-Cer / C24-Cer / C24:1-Cer / Total-Cer / dhC16-Cer: 177 µM, 4 h
# Description: ESI/MS/MS analysis of ceramide was performed on a Thermo Finnigan TSQ 7000 triple quadruple mass spectrometer, operating in a multiple reaction monitoring (MRM) positive ionization mode. U937 cells (4×10^6/sample) were washed twice with PBS after they were harvested from cultures. […] An aliquot of the lipid extracts was taken for inorganic phosphate determination and the remainder was evaporated to dryness and reconstituted in 100 μL of methanol. The reconstituted samples were injected on the Surveyor/TSQ 7000 LC/MS system and gradient was eluted from the BDS Hypersil C8, 150×3.2 mm, 3 μm particle size column, with 1.0 mM methanolic ammonium formate/2 mM aqueous ammonium formate mobile phase system. Peaks for the target analytes and internal standards were collected and processed using the Xcalibur software system. Various species of ceramide were quantified using N-palmitoyl-D-erythro-sphingosine, C13 base (C13 ceramide) and N-heptadecanoyl-D-erythro-sphingosine, C18 base (C18 ceramide) as internal calibration standards. Calibration curves were constructed by plotting peak area ratios of synthetic standards corresponding to each target analyte with respect to the appropriate internal standard. The target analyte peak areas from the samples were similarly normalized to their respective internal standard then compared with the calibration curves using a linear regression model. The results are expressed as pmole ceramide/nmole lipid phosphate (Pi).
# [3] = test system: Porcine liver esterase (PLE); experiment: Esterase-catalyzed hydrolysis of D609 prodrugs; type: in vitro ADME
# Description: FIG. 18A, FIG. 18B, FIG. 18C: Esterase-catalyzed hydrolysis of D609 prodrugs. Prodrugs (300 μM in 15% DMSO/PBS, pH 7.4), 1 (FIG. 18A), 2 (FIG. 18B) and 3 (FIG. 18C), were incubated at 37° C. in the presence of 0.1 unit/ml PLE. […] The data are presented as the mean±SEM of three independent assays.
# To determine the hydrolytic property of D609 prodrugs 1, 2, and 3 (300 μM in 15% DMSO/PBS, pH7.4), these prodrugs were incubated with 0.1 unit/ml PLE at 37° C. After various times during incubation, the rate of hydrolysis of these D609 prodrugs was monitored by HPLC analysis. […] The concentration of D609 (μM) was calculated based on a linear D609-DTNB standard curve. The pseudo-first-order plots for the hydrolysis of these prodrugs were constructed from the logarithm of remaining ester versus time (FIG. 18). The end points of the reaction (150 min) were defined as when the hydrolysis of these prodrugs was over 99% complete and the release of D609 reached plateau. The pseudo-first-order rate constant (Kobs) and T1/2 (=0.693/Kobs) were calculated based on the slope of the linear portion of the curve for each of these prodrugs and are presented in Table 1 (Gilmer et al., 2002).
# [4] = test system: STM91-01 malignant rhabdoid tumor cells; experiment: MTT cell viability, STM91-01 cells; type: cell-based, human
# [5] = test system: various tumor cells; experiment: IR-induced apoptosis of tumor cells; type: cell-based
# [6] = test system: A20 cells; experiment: MTT cell viability and growth, A20 cells
# Description: The cell viability was analyzed by MTT assay after A20 cells were cultured with vehicle or different concentrations of D609 for 48 hrs. […] A20 cells were untreated (Control), irradiated (IR 4 Gy), incubated with D609 alone, or treated with both D609 and IR. The cell viability and/or proliferation were measured by MTT assay at different times after the cells were placed into well of 96-well plate (2×10^4/0.2 ml/well). The results are expressed as means±SEM (n=3) (FIG. 13B).
# [7] = target: phospholipase C (Type XI from B. cereus) (Bacillus cereus, UniProt P09598); type: biochemical; settings: 2 hrs at 37° C., pNPP 40 mM
# phospholipase C (Type XI from B. cereus), sequence (P09598 39-283 limits assumed): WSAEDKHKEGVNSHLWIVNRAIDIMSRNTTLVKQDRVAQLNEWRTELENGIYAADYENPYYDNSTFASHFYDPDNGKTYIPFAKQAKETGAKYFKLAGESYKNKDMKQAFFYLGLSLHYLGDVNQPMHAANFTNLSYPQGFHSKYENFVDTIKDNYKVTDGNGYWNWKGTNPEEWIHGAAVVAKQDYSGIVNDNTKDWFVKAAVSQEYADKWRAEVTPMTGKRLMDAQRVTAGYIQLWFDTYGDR
# Description: (§1) In this study, p-nitrophenyl-phosphorylcholine (pNPP, 40 mM) was incubated with 2 U/ml phospholipase C (Type XI from B. cereus) in the presence or absence of various concentrations of inhibitors for 2 hrs at 37° C. The amount of the cleaved substrate pNPP was quantified by determination of the optical density at 410 nm using an ELISA reader. The results are expressed as percent of vehicle control and presented as means±SEM (n=3) (FIG. 9A). NBD-C6-ceramide and PC were incubated with U937 cell lysates containing 50 μg protein in the presence or absence of various concentrations of inhibitors for 30 min at 30° C. The formation of NBD-C6-sphingomyelin as analyzed by TLC and quantified by determination of the fluorescent intensity of NBD-C6-sphingomyelin using a phosphorimager. The results are expressed as percent of vehicle control (FIG. 9B). U937 cells were incubated with different concentrations of inhibitors for 48 hours.
# [8] = test system: lymphocytes; experiment: IR-induced oxidative events in lymphocytes; type: cell-based; settings: pre-incubation of lymphocytes
# [9] = test system: Mouse splenic lymphocytes; experiment: IFNγ production of ConA-stimulated lymphocytes, ELISA; type: cell-based
# Description: (§2) Studies were conducted to determine whether D609 enhances mouse splenic lymphocyte mitogenic responses and IFNγ production. Mouse splenic lymphocytes at 2.5×10^6/ml were stimulated with LPS or ConA in the presence or absence of D609. The cell proliferation was measure by 3H-thymidine incorporation after the cells were cultured with LPS (FIG. 8A) or with ConA (FIG. 8B). […] In addition, the supernatants of ConA-stimulated lymphocyte cultures were harvested at various times and measured for IFNγ production by ELISA (FIG. 8C).
# [10] = test system: leukemia cells (U937, Jurkat, SupT13 and A20), solid tumor cells (HT1080); experiment: MTT cell viability, leukemia and solid tumor cell panel; type: cell-based; settings: 48 hours
# Description: The results, shown in FIG. 7A and FIG. 7B, are expressed as a percent of vehicle control and presented as means±SEM (n=3).
# [11] = test system: sphingomyelin synthase (SMS); experiment: SMS activity in U937 cell lysates with inhibitor added (cell lysate-based in vitro assay); type: biochemical, Human; settings: 30 min at 30° C.
# Description: as §1
# [12] = Cyclic voltammetry, reducing power (E1/2) at physiological pH; type: physicochemical; settings: 2 mM in PBS (pH 7.4)
# Description: D609 was dissolved in PBS (pH 7.4) at 2 mM concentration, and E1/2 was measured using a cyclic voltammetry apparatus (Model CV-2, from BAS, West Lafayette, 1N).
# [13] = test system: Mouse splenic lymphocytes; experiment: Mitogen-stimulated lymphocyte proliferation, 3H-thymidine incorporation; type: cell-based; settings: 188 μM=50 μg/ml
# Description: as §2
# [14] = 300 μM, 0.1 unit/ml PLE, 37° C., pH 7.4
Structure (SMILES),increase in the level of total ceramide compared to vehicle-treated cells [2],C14-Cer [2],C16-Cer [2],C18-Cer [2],C20-Cer [2],C24-Cer [2],C24:1-Cer [2],Total-Cer [2],dhC16-Cer [2],LD50 [4] [µM],also measured
"CCCC(=O)OCSC(=S)OC1CC2CC1C1CCCC21 (stereo not shown) [Prodrug 2, S-methyleneoxybutyryl D609]",1.84 fold,"0.054^a,b pmole ceramide/nmole lipid Pi",1.713^a pmole ceramide/nmole lipid Pi,0.262^a pmole ceramide/nmole lipid Pi,0.031^a pmole ceramide/nmole lipid Pi,0.482^a pmole ceramide/nmole lipid Pi,"0.863^a,b pmole ceramide/nmole lipid Pi","4.358^a,b pmole ceramide/nmole lipid Pi","0.951^a,b pmole ceramide/nmole lipid Pi",87.10,"T1/2 [1]: 7.559 s; T1/2 [3, 14]: 10.61 min; kobs [3, 14]: 0.06532 min⁻¹; % D609 (molar recovery of D609) ([3]; complete hydrolysis by esterase): 93%"
"S=C([S-])OC1CC2CC1C1CCCC21.[K+] (stereo not shown) [Prodrug D609, Tricyclodecan-9-yl-xanthogenate]",about 1.61 fold,0.038^a pmole ceramide/nmole lipid Pi,1.612^a pmole ceramide/nmole lipid Pi,0.213^a pmole ceramide/nmole lipid Pi,0.036^a pmole ceramide/nmole lipid Pi,0.416 pmole ceramide/nmole lipid Pi,0.669^a pmole ceramide/nmole lipid Pi,3.816^a pmole ceramide/nmole lipid Pi,0.832^a pmole ceramide/nmole lipid Pi,545.75,"protection of tumor cells from IR-induced apoptosis [5]: failed to protect them from IR-induced apoptosis; LD50 ([6]; 48 hrs): about 106 μM and ~28.2 μg/ml; response of A20 cells to IR ([6]; IR 4 Gy): enhanced their response to IR; inhibition of PC-PLC activity [7]: dose-dependently inhibited; IR-induced events (ROS production, decrease in GSH, oxidative damage to proteins and lipids, NF-κB activation) [8]: significant diminution; production of interferon-γ (IFNγ) [9]: significantly augmented; cell viability [10]: dose-dependent reduction in cell viability; inhibition of SMS activity [11]: inhibited the SMS activity in a dose-dependent manner; E1/2 [12]: 350 mV; mitogenic responses to LPS or ConA [13]: enhanced their mitogenic responses"
